Where two headings read alike, the source gives them in different places.
Experiments:
Test in all cases: In-water applied herbicidal activity in transplanted paddy rice (Example 17)
Format in all cases: in vivo
[1] = test system: Echinochloa crus-galli (L.) P.BEAUV. (barnyardgrass); conditions: for GR50 / GR80 / GR90: ECHCG, in-water applied, probit analysis; for GR50: 50% growth reduction; for GR80: 80% growth reduction; for GR90: 90% growth reduction; for pest or weed control at 17.5 g/ha / pest or weed control at 35 g/ha: Echinochloa crus-galli, 504 h, read-out: Visual Injury (%) ECHCG; for pest or weed control at 35 g/ha: 35 g ae/ha
How it was run: (§1)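 Ester forms of test compounds, in acetone diluted with aqueous Agri-dex (final 1.25% v/v crop oil concentrate), were injected into the flood water of paddy pots holding weeds or rice at the 2nd–3rd leaf stage in mud (pH ~7.3–7.8). Visual injury versus untreated plants was scored 0–100% after 3 weeks in greenhouse (~29/26 °C). GR50/GR80 were derived by probit analysis.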

[2] = test system: Fimbristylis miliacea (L.) VAHL (globe fringerush); conditions: for GR50 / GR80 / GR90: FIMMI, in-water applied, probit analysis; for GR50: 50% growth reduction; for GR80: 80% growth reduction; for GR90: 90% growth reduction; for Visual Injury (%) FIMMI: rice cropping systems, in-water applied (paddy), 35 g ae/ha, 21 DAA, may represent multiple trials
How it was run: as §1

[3] = test system: Scirpus juncoides ROXB. (Japanese bulrush); conditions: for GR50 / GR80 / GR90: SCPJU, in-water applied, probit analysis; for GR50: 50% growth reduction; for GR80: 80% growth reduction; for GR90: 90% growth reduction
How it was run: as §1

[4] = rice cropping systems, in-water applied (paddy), 17.5 g ae/ha, 21 DAA, may represent multiple trials
[5] = rice cropping systems, in-water applied (paddy), 21 DAA, may represent multiple trials

Molecule `COc1c(Cl)ccc(-c2nc(C(=O)OCc3ccccc3)c(Cl)c(N)c2F)c1F` [Compound 1, benzyl 4-amino-3-chloro-6-(4-chloro-2-fluoro-3-methoxyphenyl)-5-fluoropicolinate] has a GR50 [1] of 10.9 g ae/ha, a GR80 [1] of 21.8 g ae/ha and a GR90 [1] of 31.2 g ae/ha. It also gave a pest or weed control at 17.5 g/ha [1] of 87%, a GR50 [2] of under 17.5 g ae/ha and a GR80 [2] of under 17.5 g ae/ha. It also gave a GR90 [2] of under 17.5 g ae/ha, a GR50 [3] of under 8.75 g ae/ha and a GR80 [3] of 4.4 g ae/ha. For the same molecule, the GR90 [3] was 10.8 g ae/ha and the pest or weed control at 17.5 g/ha ([3]; Schoenoplectiella juncoides, 504 h, read-out: Visual Injury (%) SCPJU) was 99%.

Molecule `COC(=O)c1nc(-c2ccc(C3CC3)cc2)c(F)c(N)c1Cl` [Compound B, methyl 4-amino-3-chloro-6-(4-cyclopropylphenyl)-5-fluoropicolinate] has a pest or weed control at 17.5 g/ha [1, 4] of 10%.

`COC(=O)c1nc(-c2ccc(Cl)c(OC)c2F)c(F)c(N)c1Cl` [E, methyl 4-amino-3-chloro-6-(4-chloro-2-fluoro-3-methoxyphenyl)-5-fluoropicolinate, reference compound] showed a GR50 [1] of 33.2 g ae/ha, a GR80 [1] of 58.5 g ae/ha and a GR90 [1] of 78.7 g ae/ha. For the same molecule, the pest or weed control at 17.5 g/ha [1, 4] was 26%, the GR50 [2] was 14.4 g ae/ha and the GR80 [2] was 21.7 g ae/ha. The GR90 [2] was 26.8 g ae/ha, the GR50 [3] was 9.6 g ae/ha and the GR80 [3] was 20.0 g ae/ha. It also gave a GR90 [3] of 29.5 g ae/ha and a pest or weed control at 17.5 g/ha ([3]; Schoenoplectiella juncoides, 504 h, rice cropping systems, in-water applied (paddy), 17.5 g ae/ha, 21 DAA, may represent multiple trials, read-out: Visual Injury (%) SCPJU) of 75%.

`Nc1c(F)c(-c2ccc(C3CC3)cc2)nc(C(=O)OCc2ccccc2)c1Cl` [Compound 42, benzyl 4-amino-3-chloro-6-(4-cyclopropylphenyl)-5-fluoropicolinate] was tested, and the pest or weed control at 17.5 g/ha [1, 4] was 70%.

In the case of `COc1c(Cl)ccc(-c2cc(N)c(Cl)c(C(=O)OCc3ccccc3)n2)c1F` [Compound 39], the pest or weed control at 35 g/ha [1, 5] is reported as 100% and the “Visual Injury (%) FIMMI” value [2] is reported as 100%.

`COC(=O)c1nc(-c2ccc(Cl)c(OC)c2F)nc(N)c1OC` [Compound F, methyl 6-amino-2-(4-chloro-2-fluoro-3-methoxyphenyl)-5-methoxypyrimidine-4-carboxylate, reference compound] showed a pest or weed control at 35 g/ha [1, 5] of 0% and a pest or weed control at 35 g/ha ([3]; Schoenoplectiella juncoides, 504 h, rice cropping systems, in-water applied (paddy), 35 g ae/ha, 21 DAA, may represent multiple trials, read-out: Visual Injury (%) SCPJU) of 50%.

For `COC(=O)c1nc(-c2ccc(Cl)c(OC)c2F)cc(N)c1Cl` [Compound G, methyl 4-amino-3-chloro-6-(4-chloro-2-fluoro-3-methoxyphenyl)picolinate, reference compound], the pest or weed control at 35 g/ha [1, 5] was 74% and the “Visual Injury (%) FIMMI” value [2] was 61%.
